Where two headings read alike, the source gives them in different places.

Experiment [1] has as its system cytochrome c. It counts as cell-based, mouse.
Experiment [2] has as its system cellular dehydrogenase activity.
Experiment [3] concerns mitochondrial membrane potential. It counts as cell-based, mouse.
The subject of experiment [4] is mt-Co1. The experiment is described as follows: Real-time PCR of mt-Co1 (mtOXPHOS) expression. The format is cell-based, mouse. The note with it: 1 μM, FIG. 8c. An excerpt:
(§1) FIG. 8 show measurements of the coupling between nuclear and mitochondrial OXPHOS gene expression. (a) A two-dimensional plot of the composite Z-scores for nuOXPHOS and mtOXPHOS expression is shown. (b) Row-normalized heat map displaying the top 15 compounds in each quadrant (I-IV). Heat map of nuOXPHOS and mtOXPHOS expression is shown along with ATP levels. (c) Real-time PCR validation of select compounds at the indicated doses, using Atp5a1 (nuOXPHOS) and mt-Co1 (mtOXPHOS) normalized to Hprt1 (internal control). Values indicate average fold change from mock-treated (DMSO) wells ±s.d. in four biological replicates.
(§2) Gene expression. […]. The cDNA was then used for real-time PCR quantification of products for mouse Atp5a1 (Mm00431960_ml), Sod2 (MnSOD; Mm01313000_m1) and Ppargc1a (Mm00447183_m1), with Hprt1 (Mm03024075_m1) serving as an internal control, using TaqMan gene-expression assays (Applied Biosystems).

For experiment [5], the system named is reactive oxygen species. The format is cell-based, mouse. To be noted: for ROS levels: primary screen, in words.
Experiment [6] concerns nuOXPHOS transcripts. It counts as cell-based, mouse.
Experiment [7] deals with C2C12 myotubes.
For experiment [8], the system named is Atp5a1. The experiment is described as follows: Quantitative PCR of Atp5a1 (nuOXPHOS) expression. The format is cell-based, mouse. The note with it: for increase of Atp5a1 expression: compound alone, FIG. 6d. As to the method: (§3) (a) Compounds indicated in FIG. 4 were retested at 20 nM, 200 nM, 2 μM and 20 μM. Gene expression levels are represented as a row-normalized heat map, with negative controls (DMSO treatment) and positive controls (PGC-1α treatment) shown. Dose-response curves for ROS levels and viability are also provided, where the y-axis is the composite Z-score. Shaded area indicates the noise envelope (P<0.05). Data shown are the results of four biological replicates per concentration. […] (c) Quantitative PCR measurement of Ppargc1a gene expression, in response to either DMSO alone (Con), 5 μM deoxysappanone B (deo) or 1 μM mebendazole (meb). (d) Quantitative PCR measurement of the nuclear OXPHOS gene Atp5a1. Cells were either treated with compound alone (black bars) or in combination with […] of the ERRa inverse agonist XCT790 (gray bars). (e) Quantitative PCR measurement of Sod2, which encodes the ROS scavenger MnSOD, as in (d). Means and s.d. of expression data are the result of four biological replicates.
as §1, §2

Experiment [9] has as its system mtOXPHOS transcripts. The format is cell-based, mouse.
The subject of experiment [10] is OXPHOS gene expression. The format is cell-based, mouse. To be noted: for OXPHOS expression: primary screen, in words.
Experiment [11] has as its system Sod2. The experiment is described as follows: Quantitative PCR of Sod2 (MnSOD) expression. It counts as cell-based, mouse. To be noted: in combination with compound, FIG. 6e. The procedure: as §3, §2
The subject of experiment [12] is Ppargc1a. The experiment is described as follows: Quantitative PCR of Ppargc1a expression. The format is cell-based, mouse. The note with it: 5 μM deoxysappanone B or 1 μM mebendazole, FIG. 6c. The procedure:
as §3, §2

For experiment [13], the system named is microtubules. In words: Tubulin immunofluorescence. It counts as cell-based, mouse. To be noted: C2C12 myotubes, 48 hours, 10 nM to 10 μM, FIG. 7.
Experimental: Tubulin immunofluorescence. […] Cells were washed once in 50 μl PBSTB2 (PBS with 0.1% (vol/vol) Tween-20 and 2% (wt/vol) BSA) and blocked in PBSTB2 for 1 h at room temperature or overnight at 4° C. Cells were incubated with an anti-α-tubulin (Sigma-Aldrich) antibody, 1:1,000 in PBSTB2, for 1 h at room temperature, and then washed three times with PBSTB2. […] Cells were visualized using an automated microscope (IX-Micro, Molecular Devices).
The mark [14] stands for this setting: composite Z-score vs DMSO, Conc 14.22 μM.
The mark [15] stands for this setting: composite Z-score vs DMSO, Conc 20 μM.
[16] abbreviates: normalized composite Z-score vs mock-treated (DMSO) wells, Conc 20 μM.
The mark [17] stands for this setting: Table 3, differentiated C2C12 myotubes, 48 h treatment, composite Z-score vs DMSO.
Where [18] appears, read: Table 6, C2C12 myotubes, 48 h, composite Z-score.
The mark [19] stands for this setting: retest at 20 nM to 20 μM, FIG. 6a.
[20] abbreviates: Table 7, C2C12 myotubes, 48 h, composite Z-score.
Where [21] appears, read: 13.54 μM, composite Z-score vs DMSO.
Setting [22] is: 20 μM, composite Z-score vs DMSO.

Consider `C[C@@H]1C[C@@H]([C@H](O)CC2CC(=O)NC(=O)C2)C(=O)[C@@H](C)C1` [Cycloheximide, reference compound], for which the cyt c is recorded as −1.378 in experiment [1] (setting [14]) and −2.123 in experiment [1] (setting [15]). Besides, the figures for the MTT in experiment [2] (setting [14]) and in [2] (setting [15]) were −3.550 and −3.499, respectively. The ΔΨm in experiment [3] (setting [14]) worked out at 2.318; in experiment [3] (setting [15]) it was 2.759. In experiment [4], the mtOXPHOS decreased was 2.4 fold. Moreover, the ROS in experiment [5] (setting [14]) is −3.415; in [5] (setting [15]), −2.628. In addition, the nucOX in experiment [6] (setting [14]) is given as 1.354; in experiment [6] (setting [15]), 0.688. The nuOXPHOS expression entry in experiment [6] (screen, relative to mtOXPHOS, in words) is given as “preferentially increase”. Further, the Viability is given as −2.540 in experiment [7] (setting [14]) and −2.804 in experiment [7] (setting [15]). Moreover, the nuOXPHOS elevated in [8] (1 μM, real-time PCR, FIG. 8c) is on record as 1.3 fold. The mitoOX in [9] (setting [14]) is reported as −4.179; in experiment [9] (setting [15]), −5.637. The GE-HTS in experiment [10] (setting [14]) is given as −0.504; in [10] (setting [15]), −1.482.
On to `COc1cc(/C=C(\C#N)C(=O)Nc2nnc(C(F)(F)F)s2)ccc1OCc1ccc(C(F)(F)F)cc1C(F)(F)F` [XCT790], for which the “effect of XCT790 on compound-induced MnSOD increase” value in experiment [11] was “suppressible”. The “effect of XCT790 on compound-induced Atp5a1 increase” value in experiment [8] (in combination with mebendazole or deoxysappanone B, 5 mM XCT790, FIG. 6d) is “completely inhibited”.
As to `COc1ccc2c(c1)OCC(Cc1ccc(O)c(OC)c1)C2=O` (centres unmarked) [deoxysappanone b 7,3′-dimethyl ether, reference compound], the cyt c in [1] (setting [16]) is on record as −0.951. For the same molecule, the MTT in experiment [2] (setting [16]) is listed as −2.870. Also, the ΔΨm in experiment [3] (setting [16]) was −0.637. Also, the “ROS Zscore” value in experiment [5] (setting [17]) and in experiment [5] (setting [18]) was −1.712 throughout. For the same molecule, the ROS in experiment [5] (setting [16]) is −1.712. In addition, the “dose at which ROS levels decreased” value in experiment [5] (setting [19]) is 2 µM. Besides, the “nucOXPHOS Z” value in [6] (setting [20]) was found to be 2.25. The molecule further had a nucOX in experiment [6] (setting [16]) of 2.250. In addition, in [7] (setting [16]), the Viability was −1.120. For the same molecule, in [8], the “increase of Atp5a1 expression” value worked out at 20%. For the same molecule, the “mito-OXPHOS Z” value in experiment [9] (setting [20]) amounted to 1.38. The molecule further yielded a mitoOX in experiment [9] (setting [16]) of 1.383. In experiment [12], the “expression of Ppargc1α” value is “approximately threefold”. In addition, in [13], the “potency required for microtubule disruption” value is “the same as that required to affect OXPHOS expression and ROS level”. In addition, the GEHTS_Zscore in experiment [10] (setting [17]) and in experiment [10] (setting [18]) was 2.577 throughout. For the same molecule, the GE-HTS in [10] (setting [16]) came out at 2.118. For the same molecule, in experiment [10] (setting [19]), the “dose at which OXPHOS expression increased” value came to 2 µM.
Turning to `COC(=O)Nc1nc2ccc(C(=O)c3ccccc3)cc2[nH]1` [mebendazole, methyl[5-benzoyl-benzimidazol-2-carbamate], reference compound], the cyt c in [1] (setting [21]) is given as −0.685; in experiment [1] (setting [22]), −1.473. In addition, the MTT in experiment [2] (setting [21]) is −2.797; in [2] (setting [22]) it was −2.060. For the same molecule, the ΔΨm in experiment [3] (setting [21]) is reported as −0.054; in [3] (setting [22]), −0.434. The ROS is reported as −0.791 in experiment [5] (setting [21]) and −1.003 in [5] (setting [22]). In addition, in experiment [5] (setting [17]), the “ROS Zscore” value was −1.003. Further, the ROS levels entry in experiment [5] is “suppressing ROS levels”. The “dose at which ROS levels decreased” value in experiment [5] (setting [19]) came to 2 µM. In addition, the nucOX in experiment [6] (setting [21]) is reported as −0.200; in experiment [6] (setting [22]), 1.212. For the same molecule, the Viability in experiment [7] (setting [21]) is on record as 0.064; in experiment [7] (setting [22]), 0.512. In addition, the “increase of Atp5a1 expression” value in experiment [8] is 20%. In addition, the mitoOX in experiment [9] (setting [21]) was 0.398; in experiment [9] (setting [22]), 0.824. Further, the “expression of Ppargc1α” value in [12] was “approximately threefold”. Also, the GE-HTS turned out to be 0.013 in [10] (setting [21]) and 1.160 in [10] (setting [22]). The molecule also registered a GEHTS_Zscore in experiment [10] (setting [17]) of 2.846. Moreover, the OXPHOS expression entry in experiment [10] is “boost OXPHOS expression”. Besides, the “dose at which OXPHOS expression increased” value in [10] (setting [19]) is 2 µM.
For `CC(=O)O[C@H]1C(=O)[C@@]2(C)[C@H]([C@H](OC(=O)c3ccccc3)[C@]3(O)C[C@H](OC(=O)[C@H](O)[C@@H](NC(=O)c4ccccc4)c4ccccc4)C(C)=C1C3(C)C)[C@]1(OC(C)=O)CO[C@@H]1C[C@@H]2O` [paclitaxel, reference compound], the “ROS Zscore” value in experiment [5] (setting [17]) is reported as −1.967. Further, the ROS levels entry in experiment [5] is “suppressing ROS levels”. Moreover, the “dose showing effect on ROS level” value in [5] (setting [19]) came to 20 nM. The “potency required for microtubule disruption” value in [13] is “the same as that required to affect OXPHOS expression and ROS level”. The molecule also came in with a GEHTS_Zscore in experiment [10] (setting [17]) of 2.451. Besides, the OXPHOS expression entry in [10] was “boost OXPHOS expression”. The “dose showing effect on OXPHOS expression” value in experiment [10] (setting [19]) is reported as 20 nM.

(Values after US20090143279A1 (priority 2007, published 2009).)
